Experimental data from patent US20260167622A1, “PAN-KRAS DEGRADING AGENT, AND PREPARATION METHOD THEREFOR AND USE THEREOF” (LEADINGTAC PHARMACEUTICAL (SHAOXING) CO., LTD., priority 2022, published 2026).

Columns and labels:
Settings in all cases: 25° C., 1 h
Human KRAS WT = molecular target: T1, Human KRAS WT (Homo sapiens, UniProt P01116); experiment: KRAS WT:GTP binding assay (HTRF kit)
T1 construct: purchased PerkinElmer
Protocol: Test Example 3: KRAS WT Binding Assay
In this method, the inhibitory effects of the compounds on the binding of KRAS WT to GTP were assayed by a homogeneous time-resolved fluorescence (HTRF) technique using a KRAS WT:GTP binding assay kit (PerkinElmer).
(§1) The experimental procedures were as follows (refer to the kit instructions for detailed test methods): the compounds of the present disclosure were each firstly dissolved in DMSO at a stock concentration of 20 mM. The stock solutions of the compounds were diluted in an equal gradient with DMSO, and then were subjected to second dilution with a buffer in the kit, so that the final concentrations of the test compounds in the reaction system were in a range of 0.02-5000 nM, and the final concentration of DMSO was 0.5%. […] After the incubation was completed, the fluorescence intensity of each well was measured at the excitation wavelength of 337 nm and the emission wavelengths of 620 nm and 665 nm with an EnVision microplate reader (PerkinElmer) in the HTRF mode, and Ratio values were calculated using the formula: Ratio=(665 nm/620 nm)×104. The inhibition rates of the compounds at each concentration were calculated by comparing the fluorescence intensity ratio with that of the control group. […]

Human KRAS G12C = molecular target: T2, Human KRAS G12C (Homo sapiens, UniProt P01116, G12C); experiment: KRAS G12C:GTP binding assay (HTRF kit)
T2 construct: purchased PerkinElmer
T2 sequence (P01116 1-188 isoform P01116-2 G12C): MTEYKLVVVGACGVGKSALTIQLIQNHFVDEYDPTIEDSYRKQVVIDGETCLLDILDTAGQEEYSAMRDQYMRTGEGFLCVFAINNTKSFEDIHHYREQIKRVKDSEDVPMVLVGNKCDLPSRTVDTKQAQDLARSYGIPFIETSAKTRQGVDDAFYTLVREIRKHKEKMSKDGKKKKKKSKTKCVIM
Protocol: Test Example 4: KRAS G12C Binding Assay
In this method, the inhibitory effects of the compounds on the binding of KRAS G12C to GTP were assayed by a homogeneous time-resolved fluorescence (HTRF) technique using a KRAS G12C:GTP binding assay kit (PerkinElmer).
as §1

Human KRAS G12D = molecular target: T3, Human KRAS G12D (Homo sapiens, UniProt P01116, G12D); experiment: KRAS-G12D/GTP binding assay (HTRF kit)
T3 construct: purchased PerkinElmer
T3 sequence (P01116 1-188 isoform P01116-2 G12D): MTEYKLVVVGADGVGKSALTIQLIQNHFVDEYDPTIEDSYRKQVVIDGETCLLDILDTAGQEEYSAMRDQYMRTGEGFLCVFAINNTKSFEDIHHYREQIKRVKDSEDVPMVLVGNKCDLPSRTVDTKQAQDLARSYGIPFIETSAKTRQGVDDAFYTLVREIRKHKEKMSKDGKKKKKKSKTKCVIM
Protocol: Test Example 1: KRAS G12D Binding Assay
In this method, the inhibitory effects of the compounds on the binding of KLRAS G12D to GTP were assayed by a homogeneous time-resolved fluorescence (HTRF) technique using a KLRAS-G12D/GTP binding assay kit (PerkinElmer).
as §1, with “a” for “a stock”, “mM, and then” for “mM. The stock solutions of the compounds were”, “gradient” for “gradient with DMSO, and then were subjected to second dilution”, “nm)×[…].” for “nm)×104.”

T1 sequence (P01116 1-188 isoform P01116-2): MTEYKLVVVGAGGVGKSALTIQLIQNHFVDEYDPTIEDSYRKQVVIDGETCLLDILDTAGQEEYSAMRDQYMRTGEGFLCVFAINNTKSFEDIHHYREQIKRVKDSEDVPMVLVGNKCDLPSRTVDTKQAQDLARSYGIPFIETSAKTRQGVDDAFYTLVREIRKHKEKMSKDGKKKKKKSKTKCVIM

Compound | IC50 (Human KRAS WT) | IC50 (Human KRAS G12C) | IC50 (Human KRAS G12D)
C#Cc1c(F)ccc2cc(O)cc(-c3ncc4c(N5CCC[C@@](C)(O)C5)nc(OCC5(CN6CCN(CC7CCC8(CC7)CCN(C(=O)c7ccc(Cl)c(N9CCC(=O)NC9=O)c7)CC8)CC6)CC5)nc4c3F)c12 [Example 1, (R)-1-(2-chloro-5-(9-((4-((1-(((7-(8-ethynyl-7-fluoro-3-hydroxynaphthalen-1-yl)-8-fluoro-4-(3-hydroxy-3-methylpiperidin-1-yl)pyrido[4,3-d]pyrimidin-2-yl)oxy)methyl)cyclopropyl)methyl)piperazin-1-yl)methyl)-3-azaspiro[5.5]undecane-3-carbonyl)phenyl)dihydropyrimidine-2,4(1H,3H)-dione] | 1000 to 10000 nM | 500 to 1000 nM | ≤ 500 nM
CCc1cccc2cc(O)cc(-c3ncc4c(N5CCC[C@@](C)(O)C5)nc(OCC5(CN6CCN(CC7CCC8(CC7)CCN(C(=O)c7ccc(Cl)c(N9CCC(=O)NC9=O)c7)CC8)CC6)CC5)nc4c3F)c12 [Example 3, (R)-1-(2-chloro-5-(9-((4-((1-(((7-(8-ethyl-3-hydroxynaphthalen-1-yl)-8-fluoro-4-(3-hydroxy-3-methylpiperidin-1-yl)pyrido[4,3-d]pyrimidin-2-yl)oxy)methyl)cyclopropyl)methyl)piperazin-1-yl)methyl)-3-azaspiro[5.5]undecane-3-carbonyl)phenyl)dihydropyrimidine-2,4(1H,3H)-dione] | 500 to 1000 nM | ≤ 500 nM | ≤ 500 nM
